Key:
Phytophthora infestans = assay type: in vivo; settings: 250 ppm spray, tomato seedling 4-leaf stage, 4th day after inoculation; untreated not less than 60%
[1] = tested on: Pseudoperonospora cubensis; assay: Controlling effect against cucumber downy mildew (spray on cucumber seedlings, 250 ppm); assay type: in vivo; settings: 250 ppm spray, cucumber seedling 1-leaf stage, 7th day after inoculation; untreated 60 to 80%
Protocol: A solution of the compound in acetone was diluted with water to 250 ppm, and the solution was sprayed to the cucumber seedling (breed: Sagamihangbak, two per plastic pot having a diameter of 7.5 cm) at 1-leaf stage in an amount of 10 mL of the compound/pot. After air-drying, the pot was transferred to a moist chamber provided in the greenhouse, and inoculated by spray with a zoosporic suspension of Pseudoperonospora cubensis. On the 7th day after inoculation the infected area rate for the leaves was examined. Evaluation was carried out by the following criteria.
The infected area rate for untreated groups in the examination was 60 to 80%.

| SMILES | Effect: controlling effect against tomato late blight (infected area rate) (Phytophthora infestans) | Effect: controlling effect against cucumber downy mildew (infected area rate) [1] |
| --- | --- | --- |
| Cc1ccc(C(=O)NCC(NC(=O)[C@@H](NC(=O)OC(C)C)C(C)C)C(C)C)cc1 (mixture of isomers) [Compound No. 151, N-[2-methyl-1-(RS)-[[(4-methylbenzoyl)amino]methyl]propyl]3-methyl-2-(S)-[(1-methylethyloxycarbonyl)amino]butyramide] | A (Infected area rate of less than 5%) | B (the infected area rate of 5% to less than 50%) |
| Cc1ccc(C(=O)N[C@H](CNC(=O)[C@@H](NC(=O)OCc2ccccc2)C(C)C)C(C)C)cc1 [Compound No. 281, N-[3-methyl-2-(S)-[(4-methylbenzoyl)amino]butyl]2-(S)-[(benzyloxycarbonyl)amino]-3-methylbutyramide] | B (Infected area rate of 5% to less than 50%) | B (the infected area rate of 5% to less than 50%) |
| CC(C)OC(=O)N[C@H](C(=O)NC[C@@H](NC(=O)c1cc2ccccc2o1)C(C)C)C(C)C [Compound No. 675, N-[[2-(S)-[(benzofuran-2-carbonyl)amino]-3-methyl]butyl][2-(S)-[(1-methylethyloxycarbonyl)amino]-3-methyl]butyramide] | A (Infected area rate of less than 5%) | B (the infected area rate of 5% to less than 50%) |
| Cc1ccccc1C(=O)NC[C@@H](NC(=O)[C@@H](NC(=O)OC(C)C)C(C)C)C(C)C [Compound No. 143, N-[2-methyl-1-(S)-[[(2-methylbenzoyl)amino]methyl]propyl]3-methyl-2-(S)-[(1-methylethyloxycarbonyl)amino]butyramide] | A (Infected area rate of less than 5%) | B (the infected area rate of 5% to less than 50%) |
| Cc1ccc(C(=O)N[C@@H](CNC(=O)[C@@H](NC(=O)OCc2ccccc2)C(C)C)C(C)C)cc1 [Compound No. 276, N-[3-methyl-2-(R)-[(4-methylbenzoyl)amino]butyl]2-(S)-[(benzyloxycarbonyl)amino]-3-methylbutyramide] | B (Infected area rate of 5% to less than 50%) | – |
| CC(C)[C@H](NC(=O)OCC1CCCO1)C(=O)N[C@H](CNC(=O)c1cc2ccccc2o1)C(C)C (stereo partly drawn) [Compound No. 786, N-[1-(S)-[[(benzofuran-2-carbonyl)amino]methyl]-2-methylpropyl]3-methyl-2-(S)-[[(tetrahydrofuran-2-methyl)oxycarbonyl]amino]butyramide] | A (Infected area rate of less than 5%) | A (the infected area rate of less than 5%) |
| Cc1ccc(C(=O)N[C@@H](CNC(=O)[C@@H](NC(=O)OCC(C)C)C(C)C)C(C)C)cc1 [Compound No. 274, N-[3-methyl-2-(R)-[(4-methylbenzoyl)amino]butyl]3-methyl-2-(S)-[(2-methylpropyloxycarbonyl)amino]butyramide] | A (Infected area rate of less than 5%) | B (the infected area rate of 5% to less than 50%) |
| Cc1ccc(C(=O)NC[C@@H](NC(=O)[C@@H](NC(=O)OC(C)(C)C)c2ccccc2)C(C)C)cc1 [Compound No. 60, N-[2-methyl-1-(S)-[[(4-methylbenzoly)amino]methyl]propyl]2-(S)-[(1,1-dimethylethyloxycarbonyl)amino]-2-phenyl acetamide] | B (Infected area rate of 5% to less than 50%) | – |
